Measured values taken from patent publication US5892064A, “Chemiluminescent dialkyl-substituted 1,2-dioxetanes, methods of synthesis and use” (Lumigen, Inc., priority 1997, dated 1999).

Legend:
[1] = literature, cited from earlier work
[2] = Thermal stability of dioxetanes: first order decay of chemiluminescence of dilute solutions in xylene at several temperatures; format: physicochemical; details: for Ea: activation energy for thermal decomposition; for Ea / log A: dilute solutions in xylene; for t1/2: thermal decomposition (Table 4; temperature not given); for t1/2 25° C. / log A: thermal decomposition
Description: (§1) Chemiluminescence intensities and rate measurements were performed using either a Turner Designs (Sunnyvale, Calif.) model TD-20e luminometer or a luminometer built in house (Black Box) which uses a photon counting photomultiplier. Temperature control of samples analyzed in the luminometers was achieved by means of a circulating bath connected to the instrument. Quantitative measurement of light intensities on the Turner luminometer was extended beyond the 10^4 linear range of the detector by a neutral density filter. Data collection was controlled by an Apple MacIntosh SE/30 computer using the LUMISOFT data reduction program (Lumigen, Inc., Southfield, Mich.).
Activation energies for thermal decomposition of dioxetanes 2c, h and i were determined by measuring the first order rate constant k for decay of chemiluminescence of dilute solutions in xylene at several temperatures.

[3] = Fluoride-triggered (TBAF) chemiluminescent decomposition of dioxetanes in DMSO; format: physicochemical; details: for rates of fluoride-triggered decomposition compared / t1/2 trig.: 10 μL of 10^-6 M dioxetane with 50 μL of 1M TBAF in DMSO; for Rate acceleration: fluoride-triggered versus thermal decomposition; for t1/2: [F-] 1M, DMSO
Description: as §1
Stock solutions of dioxetanes 2c, 2e, 2g and for comparison, 4-(3-t-butyldimethylsilyloxyphenyl)-4-methoxyspiro [1,2-dioxetane-3,2'-tricyclo[3.3.1.1^3,7 ]decane] (2j), (preparation described in U.S. Pat. No. 4,962,192) were made to a concentration of 10^-6 M in DMSO. Serial dilutions in DMSO were made as required. Ten μL aliquots were triggered in 7×50 mm polypropylene tubes in a Turner Designs TD-20e luminometer by injection of 50 μL of a solution of tetra-n-butylammonium fluoride (TBAF) in DMSO (1M-10^-4 M) in the appropriate solvent, typically DMSO. Light intensity was attenuated when needed by a neutral density filter. All experiments were conducted at ambient temperature. Peak light intensity and decay rate diminished as the fluoride concentration was decreased. At the lowest concentration of fluoride, decay kinetics were not cleanly first order.
The half lives for decay were essentially independent of dioxetane concentration.
The rates of fluoride-triggered decomposition of dioxetanes 2c, h, i and j were compared in DMSO under identical conditions, i.e. 10 μL aliquot of a 10^-6 M solution of dioxetane with 50 μL of 1M TBAF in DMSO. […]

[4] = Thermal and hydrolytic stability of dioxetane in aqueous buffer solution; format: physicochemical; details: 0.33 mM, 1 mg/mL Enhancer A, 0.2M buffer pH 9.6, 37° C. versus room temperature, 5 days
Description: The thermal and hydrolytic stability of a 0.33 mM solution of dioxetane 2f containing 1 mg/mL of Enhancer A in 0.2M 2-amino-2-methyl-1-propanol buffer, pH 9.6 and 0.88 mM Mg^+2 was determined at 37° C. Solutions of the dioxetane were maintained at room temperature and 37° C. for 5 days. To each of 12 wells in a 96-well microplate was added 100 μL of each solution. The plate was incubated at 37° C. and chemiluminescence emission initiated by addition of 10 μL of solutions containing 1.1×10^-15 mol of AP. Light intensities were integrated for 2.5 hours. Stability of the dioxetane was assessed by comparing the average light yield of the sample incubated at 37° C. to the solution held at room temperature. A decrease in the amount of light emitted indicates decomposition of the dioxetane during the incubation period.

C1C2CC3CC1CC(C2)C31OOC12C1CC3CC(C1)CC2C3 (centres unmarked)
half life (t1/2) at 25° C. ([1]; 25° C.): several years
activation energy for decomposition [1]: 155 kJ/mol

COC1(c2cccc(OC(C)=O)c2)OOC1(C(C)C)C(C)C (centres unmarked) [Dioxetane 2c]
Ea [2]: 118 kJ/mol
t1/2 [2]: 1.2 yr
t1/2 25° C. [2]: 1.2 yr
log A [2]: 12.85
rates of fluoride-triggered decomposition compared [3]: essentially the same rate
t1/2 trig. [3]: 7 s
Rate acceleration [3]: 5.5 × 10^6

COC1(c2cccc(OP(=O)(O)O)c2)OOC1(C(C)C)C(C)C (centres unmarked) [Dioxetane 2f]
thermal and hydrolytic stability in aqueous solution [4]: stable under these conditions

COC1(c2cccc(O[Si](C)(C)C(C)(C)C)c2)OOC1(C1CCCCC1)C1CCCCC1 (centres unmarked) [Dioxetane 2h]
Ea [2]: 123 kJ/mol
t1/2 [2]: 1.7 yr
t1/2 25° C. [2]: 1.7 yr
log A [2]: 13.7
rates of fluoride-triggered decomposition compared [3]: essentially the same rate
t1/2 trig. [3]: 7 s
t1/2 ([3]; [Dioxetane 2h] 10^-6 M): 7.2 s
t1/2 ([3]; [Dioxetane 2h] 10^-7 M): 6.2 s
t1/2 ([3]; [Dioxetane 2h] 10^-8 M): 6.2 s
t1/2 ([3]; [Dioxetane 2h] 10^-9 M): 6.7 s
Rate acceleration [3]: 7.0 × 10^6

COC1(c2cccc(O)c2)OOC1(C1CCCCC1)C1CCCCC1 (centres unmarked) [Dioxetane 2i]
Ea [2]: 119 kJ/mol
t1/2 [2]: 1.1 yr
t1/2 25° C. [2]: 1.1 yr
log A [2]: 13.2
rates of fluoride-triggered decomposition compared [3]: essentially the same rate
t1/2 trig. [3]: 6 s
Rate acceleration [3]: 5.7 × 10^6

COC1(c2cccc(O[Si](C)(C)C(C)(C)C)c2)OOC12C1CC3CC(C1)CC2C3 (centres unmarked) [Dioxetane 2j]
t1/2 [2]: 3.8 yr
rates of fluoride-triggered decomposition compared [3]: essentially the same rate
t1/2 trig. [3]: 7 s
Rate acceleration [3]: 1.4 × 10^7
